Results as given in patent US8476197B2, “Aminopropenoates as fungicides” (priority 2009, dated 2013).
Marks after values point to notes of the source that are not given here.

details: LogP, preparation examples; HPLC method ([a], [b] or [c]) not stated

Structure (SMILES)	chromatographic logP
CC(C)NC(=O)/C(C#N)=C(\NC(C)c1nccs1)c1sccc1Br (stereo not drawn)	3.11
CCC1CC1N/C(=C/C#N)c1cccnc1Cl (stereo not drawn) [3-(2-chloropyridin-3-yl)-3-[(2-ethylcyclopropyl)amino]acrylonitrile]	2.53
N#CC=C(Cl)c1cccnc1Cl [3-chloro-3-(2-chloropyridin-3-yl)acrylonitrile]	1.94
CC(N/C(=C(/C#N)C(=O)NC1CC1)c1cn(C)nc1C(F)F)c1nccs1 (stereo not drawn) [(2Z)-2-cyano-N-cyclopropyl-3-[3-(difluoromethyl)-1-methyl-1H-pyrazol-4-yl]-3-{[1-(1,3-thiazol-2-yl)ethyl]amino}acrylamide]	2.04
CCNC(=S)/C(C#N)=C(\NC1CC1CC)c1cccnc1Cl (stereo not drawn) [(2Z)-3-(2-chloropyridin-3-yl)-2-cyano-N-ethyl-3-[(2-ethylcyclopropyl)amino]-prop-2-enethioamide]	3.87

same assay, conditions: preparation examples; HPLC method ([a], [b] or [c]) not stated

Structure (SMILES)	LogP
N#CC=C(Cl)c1cccnc1Cl [3-chloro-3-(2-chloropyridin-3-yl)acrylonitrile]	2.03

details: pH 2.3

Structure (SMILES)	Log P
CCOC(=O)C(C#N)=C(NC(C)C(C)C)c1cccnc1-c1ccc(OC(F)(F)F)cc1 (stereo not drawn) [Compound 1586]	4.39
CCOC(=O)C(C#N)=C(Nc1ccccc1F)c1cccnc1Cl [Compound 1590]	2.87
CCOC(=O)C(C#N)=C(Nc1ccn(C)c1SC)c1cccnc1Cl [Compound 1592]	3.01^[c]; 3.01^[b]
CCOC(=O)C(C#N)=C(Nc1ccc(F)c(F)c1)c1cccnc1Cl [Compound 1597]	3
CCOC(=O)C(C#N)=C(Nc1ccc(F)cc1F)c1cccnc1Cl [Compound 1600]	2.95
C=CCOC(=O)C(C#N)=C(Nc1ccccc1SC)c1cccnc1Cl [Compound 1602]	3.32^[c]; 3.32^[b]
CCOC(=O)C(C#N)=C(Nc1cccc(F)c1F)c1cccnc1Cl [Compound 1604]	3
CCOC(=O)C(C#N)=C(Nc1cc(F)ccc1F)c1cccnc1Cl [Compound 1609]	2.95
CCOC(=O)C(C#N)=C(Nc1cccc(F)c1C)c1cccnc1Cl [Compound 1610]	3.26
CCOC(=O)C(C#N)=C(Nc1cccc(F)c1OC)c1cccnc1Cl [Compound 1611]	3.13^[c]; 3.13^[b]
CCNC(=O)C(C#N)=C(Nc1ccccc1SC)c1cccnc1Cl [Compound 1616]	2.85
CCOC(=O)C(C#N)=C(NC(C)C(C)C)c1ccc(Cl)nc1 (stereo not drawn) [Compound 1617]	3.39
CONC(=O)C(C#N)=C(Nc1ccccc1SC)c1cccnc1Cl [Compound 1620]	2.19

same assay, conditions: pH 2.7

Structure (SMILES)	Log P
CCOC(=O)C(C#N)=C(NC(C)c1c(Cl)cccc1Cl)c1cn(C)nc1C(Cl)Cl (stereo not drawn) [Compound 1574]	3.94^[a]
CCOC(=O)C(C#N)=C(NCc1ccc(C)c(C)n1)c1cn(C)nc1C(Cl)Cl [Compound 1575]	2.07^[a]
CCOC(=O)C(C#N)=C(NC(C)C(C)OC)c1cn(C)nc1C(Cl)Cl (stereo not drawn) [Compound 1576]	2.98^[a]
CCOC(=O)C(C#N)=C(NC(C)C(C)CC)c1cn(C)nc1C(Cl)Cl (stereo not drawn) [Compound 1577]	3.8^[a]
CCOC(=O)C(C#N)=C(NC(C)c1nccs1)c1cc(Cl)sc1Cl (stereo not drawn) [Compound 1578]	3.58^[a]
CCOC(=O)C(C#N)=C(NC(C)C(C)C)c1cc(Cl)sc1Cl (stereo not drawn) [Compound 1580]	4.68^[a]
CCOC(=O)C(C#N)=C(NC1CCC1)c1cc(Cl)sc1Cl [Compound 1581]	4.26^[a]
CONC(=O)C(C#N)=C(NC(C)c1ccccn1)c1cccnc1Cl (stereo not drawn) [Compound 1583]	1.46^[a]
CCNC(=O)C(C#N)=C(NC(C)c1ccccn1)c1cccnc1Cl (stereo not drawn) [Compound 1584]	1.93^[a]
CCOC(=O)C(C#N)=C(NC(C)C1CC1)c1cc(Cl)sc1Cl (stereo not drawn) [Compound 1587]	4.43^[a]
CCOC(=O)C(C#N)=C(NC(C)COC)c1cc(Cl)sc1Cl (stereo not drawn) [Compound 1588]	3.78^[a]
CCOC(=O)C(C#N)=C(NC(C)C1CCC1)c1cc(Cl)sc1Cl (stereo not drawn) [Compound 1589]	5.03^[a]
CC(C)C(C)NC(=C(C#N)C(=O)NCCF)c1cccnc1Cl (stereo not drawn) [Compound 1593]	2.76^[a]
CC(NC(=C(C#N)C(=O)N1CCSC1C)c1cccnc1Cl)c1nccs1 (stereo not drawn) [Compound 1594]	2.76^[a]
CC(NC(=C(C#N)C(=O)N1CCOCC1)c1cccnc1Cl)c1nccs1 (stereo not drawn) [Compound 1595]	1.84^[a]
COC(=O)CNC(=O)C(C#N)=C(NC(C)c1nccs1)c1cccnc1Cl (stereo not drawn) [Compound 1596]	1.9^[a]
CCONC(=O)C(C#N)=C(NC(C)c1nccs1)c1cccnc1Cl (stereo not drawn) [Compound 1598]	1.8^[a]
CC(NC(=C(C#N)C(=O)N1CCCO1)c1cccnc1Cl)c1nccs1 (stereo not drawn) [Compound 1599]	1.9^[a]
CCOC(=O)C(C#N)=C(NC(C)C(C)OC)c1cc(Cl)sc1Cl (stereo not drawn) [Compound 1603]	4.02^[a]
CCOC(=O)C(C#N)=C(NC1CCCc2cccnc21)c1cccnc1Cl (stereo not drawn) [Compound 1605]	3^[a]

Structure (SMILES)	Log P
CCOC(=O)C(C#N)=C(NC(C)C1CCCC1)c1cccnc1Cl (stereo not drawn) [Compound 1606]	3.9^[a]
CCOC(=O)C(C#N)=C(NC1(C)CCC1)c1cccnc1Cl [Compound 1607]	3.11^[a]
CCOC(=O)C(C#N)=C(NC(C)c1ccn[nH]1)c1cccnc1Cl (stereo not drawn) [Compound 1608]	2.1^[a]
CC(C)C(C)NC(=C(C#N)C(=O)N1CCCO1)c1cccnc1Cl (stereo not drawn) [Compound 1612]	2.55^[a]
COC1(NC(=O)C(C#N)=C(NC(C)C(C)C)c2cccnc2Cl)CC1 (stereo not drawn) [Compound 1613]	2.75^[a]
CC(C)C(C)NC(=C(C#N)C(=O)NN(C)C)c1cccnc1Cl (stereo not drawn) [Compound 1614]	2.08^[a]
CC(C)C(C)NC(=C(C#N)C(=O)N1CCSC1C)c1cccnc1Cl (stereo not drawn) [Compound 1615]	3.6^[a]
CC(C)C(C)NC(=C(C#N)C(=O)N1CCSC1)c1cccnc1Cl (stereo not drawn) [Compound 1618]	3.1^[a]
CON=C(C)NC(=O)C(C#N)=C(NC(C)C(C)C)c1cccnc1Cl (stereo not drawn) [Compound 1619]	1.88^[a]
CCOC(=O)C(C#N)=C(NC1CCC1)c1ccnc(C(F)(F)F)c1Cl [Compound 1621]	3.78^[a]
CCOC(=O)C(C#N)=C(NC(C)C1CC1)c1ccnc(C(F)(F)F)c1Cl (stereo not drawn) [Compound 1622]	3.85^[a]
CCOC(=O)C(C#N)=C(NC(C)COC)c1ccnc(C(F)(F)F)c1Cl (stereo not drawn) [Compound 1623]	3.46^[a]
CCOC(=O)C(C#N)=C(NC(C)C1CCCO1)c1ccnc(C(F)(F)F)c1Cl (stereo not drawn) [Compound 1624]	3.62^[a]
CCOC(=O)C(C#N)=C(NC(C)c1ccccn1)c1ccnc(C(F)(F)F)c1Cl (stereo not drawn) [Compound 1625]	3.33^[a]
CCOC(=O)C(C#N)=C(NC(C)c1nccs1)c1ccnc(C(F)(F)F)c1Cl (stereo not drawn) [Compound 1626]	3.46^[a]
CCOC(=O)C(C#N)=C(NC(C)C(C)C)c1ccnc(C(F)(F)F)c1Cl (stereo not drawn) [Compound 1627]	4.18^[a]
CNN(C)C(=O)C(C#N)=C(NC(C)C(C)C)c1cccnc1Cl (stereo not drawn) [Compound 1628]	1.3^[a]
CCOC(=O)C(C#N)=C(NC(C)C1=NCCS1)c1cccnc1Cl (stereo not drawn) [Compound 1629]	2.5^[a]
CCOC(=O)C(C#N)=C(NC1CCCCC1)c1cc(Cl)sc1Cl [Compound 1630]	4.92^[a]
CCOC(=O)C(C#N)=C(NC(C)C(=O)NC1CCCCC1)c1cc(Cl)sc1Cl (stereo not drawn) [Compound 1631]	3.83^[a]

Structure (SMILES)	Log P
CCOC(=O)C(C#N)=C(NC(C)C(=O)NC)c1cc(Cl)sc1Cl (stereo not drawn) [Compound 1632]	2.46^[a]
CCOC(=O)C(C#N)=C(NC(C)C(C)=NOC)c1cccnc1Cl (stereo not drawn) [Compound 1633]	2.8^[a]
CCOC(=O)C(C#N)=C(NC1CC1C1CC1)c1cccnc1Cl (stereo not drawn) [Compound 1634]	3.13^[a]
CCOC(=O)C(C#N)=C(NC1CC1C(C)C)c1cccnc1Cl (stereo not drawn) [Compound 1635]	3.53^[a]
CCON=C(C)C(C)NC(=C(C#N)C(=O)OCC)c1cccnc1Cl (stereo not drawn) [Compound 1636]	3.29^[a]
CCOC(=O)C(C#N)=C(NC(C)c1nccn1C)c1cccnc1Cl (stereo not drawn) [Compound 1637]	0.93^[a]
CCOC(=O)C(C#N)=C(NC(C)c1cc(C(F)(F)F)c(Cl)cn1)c1cccnc1Cl (stereo not drawn) [Compound 1638]	3.9^[a]
CCOC(=O)C(C#N)=C(NC(C)c1cc(Cl)cc(Cl)n1)c1cccnc1Cl (stereo not drawn) [Compound 1639]	3.7^[a]
CCOC(=O)C(C#N)=C(NC(C)C1CCC1)c1ccnn1C(F)F (stereo not drawn) [Compound 1640]	3.56^[a]
CCOC(=O)C(C#N)=C(NC1(CC)CC1)c1cccnc1Cl [Compound 1641]	3.13^[a]
CCOC(=O)C(C#N)=C(NC1(CC2CC2)CC1)c1cccnc1Cl [Compound 1642]	3.53^[a]
CCOC(=O)C(C#N)=C(NC(C)Cc1ccccc1)c1cccnc1Cl (stereo not drawn) [Compound 1643]	3.5^[a]
CCOC(=O)C(C#N)=C(NC(C)c1nccs1)c1ccnn1C(F)F (stereo not drawn) [Compound 1644]	2.51^[a]
CCOC(=O)C(C#N)=C(NC(C)C(C)C)c1ccnn1C(F)F (stereo not drawn) [Compound 1645]	3.27^[a]
CCOC(=O)C(C#N)=C(NC(C)c1ccccn1)c1ccnn1C(F)F (stereo not drawn) [Compound 1646]	2.55^[a]
CCOC(=O)C(C#N)=C(NC(C)C1CC1)c1ccnn1C(F)F (stereo not drawn) [Compound 1647]	3.01^[a]
CCOC(=O)C(C#N)=C(NC(C)C1CCC1)c1c(CC)nn(C)c1Cl (stereo not drawn) [Compound 1648]	3.94^[a]
CCOC(=O)C(C#N)=C(NC(C)c1c(Cl)cccc1Cl)c1cccnc1Cl (stereo not drawn) [Compound 1649]	3.8^[a]

same assay, conditions: pH 7.5

Structure (SMILES)	Log P
CCOC(=O)C(C#N)=C(NC(C)C(C)C)c1cccnc1-c1ccc(OC(F)(F)F)cc1 (stereo not drawn) [Compound 1586]	4.41
CCOC(=O)C(C#N)=C(Nc1ccccc1F)c1cccnc1Cl [Compound 1590]	2.85
CCOC(=O)C(C#N)=C(Nc1ccn(C)c1SC)c1cccnc1Cl [Compound 1592]	3.01^[c]; 3.01^[b]
CCOC(=O)C(C#N)=C(Nc1ccc(F)c(F)c1)c1cccnc1Cl [Compound 1597]	2.96
CCOC(=O)C(C#N)=C(Nc1ccc(F)cc1F)c1cccnc1Cl [Compound 1600]	2.9
C=CCOC(=O)C(C#N)=C(Nc1ccccc1SC)c1cccnc1Cl [Compound 1602]	3.32^[c]; 3.32^[b]
CCOC(=O)C(C#N)=C(Nc1cccc(F)c1F)c1cccnc1Cl [Compound 1604]	2.88
CCOC(=O)C(C#N)=C(Nc1cc(F)ccc1F)c1cccnc1Cl [Compound 1609]	2.83
CCOC(=O)C(C#N)=C(Nc1cccc(F)c1C)c1cccnc1Cl [Compound 1610]	3.24
CCOC(=O)C(C#N)=C(Nc1cccc(F)c1OC)c1cccnc1Cl [Compound 1611]	3.13^[c]; 3.13^[b]
CCNC(=O)C(C#N)=C(Nc1ccccc1SC)c1cccnc1Cl [Compound 1616]	2.82
CCOC(=O)C(C#N)=C(NC(C)C(C)C)c1ccc(Cl)nc1 (stereo not drawn) [Compound 1617]	3.41
CONC(=O)C(C#N)=C(Nc1ccccc1SC)c1cccnc1Cl [Compound 1620]	1.96
